Measured values reported in patent US4619917A, “Substituted 2-furanyl- or 5-oxo-2-furanyl methoxy phosphoryl alkyl cyclimmonium salts” (Sandoz Pharm. Corp., priority 1985, dated 1986).
Counter-ions that a name gives are not always drawn.

Experiments:
[1] = tested on: PAF-mediated bronchoconstriction in guinea pigs; assay: PAF-induced Pulmonary Inflation Pressure (PIP) Increase test (Test B); type: in vivo, guinea pig; conditions: PAF 100 ng/kg iv, slowly decreases to baseline
Protocol: Furthermore, in view of their usefulness as PAF receptor antagonists, the compounds of formula I have been found useful as inhibitors of PAF-mediated bronchoconstriction, which property was evaluated by the PAF-induced Pulmonary Inflation Pressure (PIP) Increase test (Test B) as follows:
Male guinea pigs, weighing between 300 and 400 gm, are anesthetized, after which time trachea tube, carotid and jugular catheters are inserted. The test animal is then force ventilated employing a small animal Harvard respirator and the resistance to lung inflation (PIP) is measured utilizing a pressure transducer and recorder. The test compound is administered either orally at 30 minutes prior to or intravenously (jugular) at 5 minutes prior to the introduction of PAF. The PAF (C18 -Sandoz, Hanover) is dissolved in Tris-Tyrode's bovine serum albumin buffer and administered intravenously (jugular) at 100 ng/kg. Any blood pressure measurements taken are recorded from a transducer attached to the carotid catheter. […] A reading at 15 minutes after the administration of PAF is termed the endpoint PIP. The effect of the test compound on the PIP response is determined by the difference between the percent increase in maximal PIP over baseline for the test animal to which has been administered PAF and the test compound compared to the test animal to which only PAF has been administered.

[2] = tested on: PAF-induced hypotension in Wistar rats; assay: Inhibition of PAF-induced hypotension (Test D); type: in vivo, rat (male Wistar); conditions: male Wistar rats
Protocol: Yet still further, the compounds of formula I are useful as inhibitors of PAF-induced hypotension as measured by their ability to inhibit the lowering of blood pressure levels induced by PAF according to the following test (Test D):
Male Wistar rats, weighing approximately 300 gm, are anesthetized and their carotid arteries cannulated to enable their diastolic and systolic arterial blood pressure measurements to be recorded. PAF is then administered intravenously at either 100 or 500 ng/kg, and the blood pressure drop (within 10 sec.) and recovery time required to reach the pre-injection blood pressure level are measured. At 100 ng/kg, a 30% decrease in blood pressure and a 3 to 4 minute recovery time are observed, whereas at 500 ng/kg, a 52% decrease in blood pressure and a 10 minute recovery time are observed. In order to measure the effectiveness of a compound for both the inhibition of blood pressure decreases and shortening of the recovery time, the test compound is administered intravenously over a range of between 5 and 7 dosage levels (1 or 2 test animals per dose) and between 1 and 5 minutes prior to the introduction of PAF to generate an ED50.

[3] = molecular target: T1, Human Platelet PAF Receptor (Homo sapiens, UniProt P25105); assay: Human Platelet PAF Receptor Assay test (Test A): inhibition of specific binding of [3H]-PAF to platelets; conditions: [3H]-PAF specific binding to human platelets, room temperature, one hour
T1 construct: from tissue; host or cells: washed human platelets from blood of healthy donors
Protocol: Human blood is obtained by venipuncture of healthy, human donors into an anti-coagulant mixture containing 3.15% of trisodium citrate and 20 μg/ml of Prostaglandin I2 (PGI2) in a ratio of blood to anti-coagulant of 9:1. Platelet rich plasma (PRP) is prepared by centrifugation (250×g) of the blood for 20 minutes at room temperature. The PRP is then centrifuged (900×g) for 10 minutes at room temperature and the platelet pellet is washed two times with Tris-Tyrode's (TT) solution having a pH of 7.4 and containing 0.25% bovine serum albumin (BSA), and to which has been added PGI2 at a final concentration of […]. The platelets are resuspended at […] in TT/BSA containing 1.4 mM CaCl2.2H2 O and 0.7 mM MgCl2.6H2 O. All of the tests are conducted in duplicate and each of the test compounds is evaluated at concentrations of 100, 50, 1 and 0.1 μM. For each determination, the following solutions are mixed:
500 μl of the above-described platelets;
10 μl of [^3 H]-PAF (40,000 counts per minute (cpm) to a final concentration of […]); and
10 μl of the test compound at 50× the desired final concentration,
10 μl of vehicle (total bound), or
10 μl of 1.85×10^-5 M cold PAF (non-specifically bound).
Each mixture is allowed to incubate at room temperature for one hour, after which time the reaction is terminated by the addition of 500 μl of ice cold TT/BSA and centrifugation (900×g) at 4° C. for 10 minutes. […] An additional 2 ml. of Scintiverse II is then added to the vials and, after mixing, the vials are counted for 1 minute in a liquid scintillation spectrometer. The amount of specific binding is calculated as the difference in cpm between the total bound [^3 H]-PAF and non-specifically bound [^3 H]-PAF. The percent inhibition of specific binding is determined by dividing the cpm specifically bound in the presence of the test compound by the cpm specifically bound in total, multiplying by 100 and then subtracting from 100. […]

[4] = tested on: PAF-mediated extravasation in guinea pigs; assay: PAF-induced Extravasation test (Test C), hemoconcentration (hematocrit); type: in vivo, guinea pig; conditions: Cavia porcellus, ia, PAF 100 ng/kg iv, inhibition of percent increase in hematocrit
Protocol: Still further, the compounds of formula I are useful as inhibitors of PAF-mediated extravasation (the extrusion of plasma from the lumen of the blood vessels into the vessel wall and surrounding tissues) measured as a function of hemoconcentration according to the PAF-induced Extravasation test (Test C) as follows.
Male guinea pigs, weighing between 300 and 400 gm, are anesthetized, after which time a femoral catheter is inserted. The test compound is administered intraarterially at one to five minutes prior to the introduction of PAF. The PAF (C18 -Sandoz, Hanover) is dissolved in Tris-Tyrode's bovine serum albumin buffer and administered intravenously (jugular) at 100 ng/kg.
To determine the hematocrit value, which is employed to index hemoconcentration and is defined as the percent of packed red blood cells in a sample of blood which is centrifuged to separate plasma from the cellular components, blood samples are collected in 50 μl heparinized hematocrit tubes. […] The tubes are then centrifuged and the percent of packed red blood cells (hematocrit) is measured (PAF induces a maximal increase in hematocrit at 5 to 7 minutes subsequent to the injection of PAF). The percent increase in hematocrit over the value prior to the injection of PAF is calculated. […]

[5] = tested on: human platelet aggregation (PAF-induced); assay: Platelet Aggregation Inhibition Assay test (PAIA test): inhibition of PAF-induced human platelet aggregation in vitro; type: cell-based; conditions: PAF-induced human platelet aggregation in PRP, 37° C., C-16 PAF 0.1 μM or 0.01 μM
Protocol: All of the compounds of formula I are useful as platelet activating factor inhibitors as indicated by their ability to inhibit platelet activating factor (PAF)-induced human platelet aggregation in vitro according to the Platelet Aggregation Inhibition Assay test (PAIA test) as follows:
Human subjects are kept aspirin free for one week and fasted overnight. Platelet rich plasma (PRP) is prepared by centrifugation (200×g.) of freshly drawn blood, anti-coagulated with 0.38% sodium citrate (final concentration). Platelet count is adjusted to 250,000 per μl using platelet poor plasma (PPP) obtained by a second centrifugation (700×g.) of the blood sample. An aliquot (0.38 ml.) of the PRP is dispensed into cuvettes and maintained at room temperature (22° C.) until used (but for not more than two hours). The PRP-containing cuvettes are incubated at 37° C. and stirred at 900 rpm within a Payton Aggregometer which is activated to follow the light deflection pattern prior to the addition of the test compound. […] Between one and two minutes after the addition of the test compound, the aggregation inducing agent (C-16 PAF-Sandoz-Hanover), dissolved in a buffer consisting of 0.01M Tris-Tyrodes buffer with 0.25% bovine serum albumin (pH 7.4), is added to the PRP-containing cuvettes in an amount predetermined to give a consistent aggregation response (either 0.1 μM or 0.01 μM). All aggregations are allowed to proceed for 6 minutes from the addition of the inducing agent. The aggregation response is quantitated by determining the area under the curve (AUC). The AUC calculated for the inducing agent alone is considered to be one hundred percent. The potential percent inhibition of the aggregation response is determined by dividing the AUC generated in the presence of the compound by the AUC of the inducing agent alone, multiplying by 100 and then subtracting from 100.

T1 sequence (P25105 whole entry): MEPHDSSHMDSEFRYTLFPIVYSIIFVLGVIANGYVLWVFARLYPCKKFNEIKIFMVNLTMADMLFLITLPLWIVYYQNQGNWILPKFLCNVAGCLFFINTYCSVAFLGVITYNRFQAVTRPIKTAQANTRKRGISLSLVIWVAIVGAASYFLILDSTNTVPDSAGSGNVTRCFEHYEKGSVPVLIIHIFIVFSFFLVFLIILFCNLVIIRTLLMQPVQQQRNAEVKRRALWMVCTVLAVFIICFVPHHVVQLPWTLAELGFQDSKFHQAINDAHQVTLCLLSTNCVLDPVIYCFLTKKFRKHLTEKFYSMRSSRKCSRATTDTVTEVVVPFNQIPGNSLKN

IC50 [3] [µM] | IC50 [5] [µM] | Compound | duration of long term PIP response [1] | decrease in blood pressure ([2]; PAF 100 ng/kg iv) [%] | decrease in blood pressure ([2]; PAF 500 ng/kg iv) [%] | recovery time to pre-injection blood pressure level ([2]; PAF 500 ng/kg iv) [min] | ED50 [4] [mg/kg] | ED50 ([2]; Rattus norvegicus, iv, PAF-induced hypotension) [mg/kg]
– | – | 1-O-alkyl-2-acetyl-sn-glyceryl-3-phosphorylcholine [PAF] | at least 30 minutes | 30 | 52 | 10 | – | –
1.8 | 10.5 | CCCCCCCCCCCCCCCCCCOCCC1(COP(=O)([O-])OCC[n+]2ccsc2)CCC(=O)O1 (stereo not shown) [Example 1, 3-[2-[(2-Octadecyloxy)ethyl-5-oxo-tetrahydrofuran-2-yl]methoxyhydroxyphosphinyloxy-ethane]thiazolium hydroxide-inner salt-4-oxide] | – | – | – | – | 0.25 | –
3.3 | 81.5 | CCCCCCCCCCCCCCCCCCOCC1(COP(=O)([O-])OCC[n+]2ccsc2)CCCO1 (stereo not shown) [Example 2, 3-[2-[(2-Octadecyloxymethyltetrahydrofuran-2-yl-methoxy)-hydroxyphosphinyloxy]-ethane]-thiazolium hydroxide inner salt-4-oxide] | – | – | – | – | – | –
0.47 | 3.5 | CCCCCCCCCCCCCCCCCCNC(=O)OCC1(COP(=O)([O-])OCC[n+]2ccsc2)CCCO1 (stereo not shown) [Example 3, 3-[2-[(2-Octadecylaminocarbonyloxymethyltetrahydrofuran-2-yl-methoxy)-hydroxyphosphinyloxy]-ethane]-thiazolium hydroxide inner salt-4-oxide] | – | – | – | – | 0.3 | 1.5
